Measurements taken from patent US3987180A, “1-Propyl-imidazolyl antimycotic compositions and methods of treating mycoses” (Bayer Aktiengesellschaft, priority 1973, dated 1976).
In brackets after ≈: the same amount, converted by molar mass.

Tests used:
[1] = tested on: Trichophyton mentagrophytes; assay: Antimycotic activity in vitro (series dilution test), Trichophyton mentagrophytes; assay type: cell-based; conditions: nutrient medium, 28° C, 24 to 96 hours, read-out: Minimum inhibitory concentration (MIC), Trichophyton mentagrophytes
Penicillium commune = assay: Antimycotic activity in vitro (series dilution test), Penicillium commune; assay type: cell-based; conditions: nutrient medium, 28° C, 24 to 96 hours, read-out: Minimum inhibitory concentration (MIC), Penicillium commune
Candida albicans = assay: Antimycotic activity in vitro (series dilution test), Candida albicans; assay type: cell-based; conditions: nutrient medium, 28° C, 24 to 96 hours, read-out: Minimum inhibitory concentration (MIC), Candida albicans
Aspergillus niger = assay: Antimycotic activity in vitro (series dilution test), Aspergillus niger; assay type: cell-based; conditions: nutrient medium, 28° C, 24 to 96 hours, read-out: Minimum inhibitory concentration (MIC), Aspergillus niger
Trichophyton quinckeanum = assay: Oral administration against Quinckeanum trichophytosis in white mice; assay type: in vivo; conditions: 100 mg/kg orally twice daily up to the eighth day of the infection
Experimental: b. Oral administration against Quinckeanum trichophytosis in white mice By using doses of 100 mg/kg of body weight, administered orally twice daily up to the eighth day of the infection, it was possible to suppress the development of the Quinckeanum infection in mice.

[2] = tested on: Trichophyton mentagrophytes; assay: Topical application against trichophytosis in guinea pigs; assay type: in vivo; conditions: 1% strength solution applied locally for 11 to 14 days
Source text: a. Topical application against trichophytosis in guinea pigs.
A 1% strength solution of the active compounds in a dimethylsulphoxide/glycerol/water mixture (1:3:6) or in polyethylene glycol 400 was applied locally for 11 to 14 days after the trichophytosis (pathogen: Trichophyton mentagrophytes) had been produced experimentally.

Compound | MIC [1] | MIC (Penicillium commune) | MIC (Candida albicans) | MIC (Aspergillus niger) | Action against Trichophyton quinckeanum (Trichophyton quinckeanum) | Action (topical, trichophytosis in guinea pigs) [2]
CC(C)(C)C(O)C(Cn1ccnc1)Oc1cccc(Cl)c1 (stereo not shown) [Example 4] | > 64 µg/mL | > 64 µg/mL | 64 µg/mL (≈ 207 µM) |  |  | 
CC(C)(C)C(O)C(Cn1ccnc1)Oc1ccccc1 (stereo not shown) [Example 8] | 32 µg/mL (≈ 117 µM) | > 64 µg/mL | 64 µg/mL (≈ 233 µM) |  |  | 
CC(C)(C)C(O)C(Cn1ccnc1)Oc1ccc(Cl)cc1Cl (stereo not shown) [Example 5] | 4 µg/mL (≈ 11.7 µM) | > 64 µg/mL | 64 µg/mL (≈ 186 µM) | 64 µg/mL (≈ 186 µM) |  | 
CC(C)(C)C(O)(Cc1ccccc1)C(Cn1ccnc1)Oc1ccc(Cl)cc1 (stereo not shown) [Example 2, 1-(imidazol-1-yl)-2-(4-chlorophenoxy)-3-benzyl-3-hydroxy-4,4-dimethyl-pentane] | < 1 µg/mL | > 64 µg/mL | 64 µg/mL (≈ 160 µM) | > 64 µg/mL |  | 

More lines, main results first:

MIC [1] | MIC (Penicillium commune) | MIC (Candida albicans) | MIC (Aspergillus niger) | Compound | Action against Trichophyton quinckeanum (Trichophyton quinckeanum) | Action (topical, trichophytosis in guinea pigs) [2]
4 µg/mL (≈ 12.4 µM) | > 64 µg/mL | 64 µg/mL (≈ 198 µM) | > 64 µg/mL | Cc1cc(Cl)ccc1OC(Cn1ccnc1)C(O)C(C)(C)C (stereo not shown) [Example 7] | xx (fewer than 30% of the animals showed symptoms of the infection.) | xx (healing of the infection inside 4-6 days after infection.)
32 µg/mL (≈ 104 µM) | > 64 µg/mL | 64 µg/mL (≈ 207 µM) |  | CC(C)(C)C(O)C(Cn1ccnc1)Oc1ccccc1Cl (stereo not shown) [Example 3] |  | 
8 µg/mL (≈ 24.8 µM) | > 64 µg/mL | 64 µg/mL (≈ 198 µM) |  | CC(C)(C)C(C)(O)C(Cn1ccnc1)Oc1ccc(Cl)cc1 (stereo not shown) [Example 9] | xx (fewer than 30% of the animals showed symptoms of the infection.) | xx (healing of the infection inside 4-6 days after infection.)
64 µg/mL (≈ 219 µM) | > 64 µg/mL | 64 µg/mL (≈ 219 µM) |  | CC(C)(C)C(O)C(Cn1ccnc1)Oc1ccc(F)cc1 (stereo not shown) [Example 6] |  | 
32 µg/mL (≈ 104 µM) | > 64 µg/mL | 64 µg/mL (≈ 207 µM) |  | CC(C)(C)C(O)C(Cn1ccnc1)Oc1ccc(Cl)cc1 (stereo not shown) [Example 1, 1-(imidazol-1-yl)-2-(4-chlorophenoxy)-3-hydroxy-4,4-dimethyl-pentane] |  | 
